From PubChem BioAssay AID1996
In brackets after ≈: the same amount, converted by molar mass.

Conditions: buffer; pH 7.4; 200.0 µM

Row | solubility kinetic | Structure (SMILES)
1 | 18 µg/mL (≈ 52.4 µM) | CCOc1ccc(-n2c(=O)c3ccccc3c3ccccc3c2=O)cc1
2 | 7.5 µg/mL (≈ 26.7 µM) | CCc1ccc(NC(=O)CCC(=O)c2ccccc2)cc1
3 | > 29 µg/mL | Cc1ccccc1C(=O)NCC(=O)O
4 | 58.2 µg/mL (≈ 135 µM) | Cc1ccc(S(=O)(=O)N2CCN(C(C)C(=O)NCC(C)c3ccccc3)CC2)cc1 (centres undefined)
5 | > 41.1 µg/mL | Cc1cc([N+](=O)[O-])nn1CC(=O)NCc1ccccc1
6 | < 0.4 µg/mL | COc1ccccc1C(=O)Nc1ccc(Br)c2cccnc12
7 | 0.8 µg/mL (≈ 2.52 µM) | Cc1cnc(C(=O)NCC(c2ccccc2)c2ccccc2)cn1
8 | > 38.4 µg/mL | O=[N+]([O-])c1ccc(Nc2ccccc2)c2nonc12
9 | > 50.1 µg/mL | O=C(CCCNC(=O)c1ccc(Cl)cc1)Nc1ncccc1O
10 | 22.4 µg/mL (≈ 115 µM) | Cc1nc2ccccc2c2ncccc12
11 | > 46.4 µg/mL | Cc1ccc(CN2CC(C(=O)Nc3ccncc3)CC2=O)cc1 (centres undefined)
12 | 4.4 µg/mL (≈ 11.2 µM) | COc1ccc(NC(=O)CN(C)C2=NS(=O)(=O)c3ccccc32)cc1Cl
13 | 23.9 µg/mL | CN(C)Cc1ccccc1CCc1ccccc1.Cl
14 | > 50.6 µg/mL | Cc1ccc(S(=O)(=O)NC(C)(C)CSc2ncccn2)cc1
15 | 5.9 µg/mL (≈ 17.1 µM) | Cc1ccc(NC(=O)CN2C(=O)c3ccccc3S2(=O)=O)cc1C
16 | 20.2 µg/mL (≈ 73.4 µM) | O=C(/C=C/c1ccccc1)Oc1cccc2cccnc12
17 | 3.9 µg/mL (≈ 16.4 µM) | CC(=O)Nc1ccc2c(c1)CCc1ccccc1-2
18 | > 45.3 µg/mL | Cc1noc(C)c1C(=O)OC(C)C(=O)N(C)c1ccccc1 (centres undefined)
19 | < 0.2 µg/mL | COc1cccc(Oc2nc(-c3ccncc3)nc3ccccc23)c1
20 | > 39.1 µg/mL | CCCc1ncc(C(O)c2cccc(OC)c2)n1C (centres undefined)
21 | 1.2 µg/mL (≈ 5.46 µM) | Cc1ccc(C)n1Cc1ccccc1Cl
22 | 25.6 µg/mL (≈ 75.6 µM) | CCOC(=O)N1CCN(CC(c2ccccc2)c2ccccc2)CC1
23 | < 0.3 µg/mL | COC(=O)c1cn(CC(=O)Nc2ccc(F)cc2)c2ccccc12
24 | 4.8 µg/mL | Cc1ccc(OCCCCN2CCc3ccccc3C2)c(C)c1.Cl
25 | > 42.6 µg/mL | Cc1cccc(C)c1NC(=O)CNC(=O)c1cnccn1

Row | solubility kinetic | Structure (SMILES)
26 | 13.5 µg/mL (≈ 52.5 µM) | CC(C)(C)c1ccc(C(=O)NCc2ccco2)cc1
27 | > 48.9 µg/mL | CN(C)C(CNC(=O)c1ccccc1C(F)(F)F)c1ccco1 (centres undefined)
28 | 37.3 µg/mL (≈ 106 µM) | CC(OC(=O)c1cccc(N(C)C)c1)C(=O)N1CCc2ccccc2C1 (centres undefined)
29 | 3.8 µg/mL (≈ 11.8 µM) | CC(=O)Nc1ccc(N=Cc2c(O)c3ccccc3oc2=O)cc1
30 | 5 µg/mL (≈ 14 µM) | O=C(CSc1nc2ccccc2c(=O)[nH]1)Nc1ccc([N+](=O)[O-])cc1
31 | 38.2 µg/mL (≈ 123 µM) | CC(C)N(Cc1ccccc1)C(=O)c1ccc2nsnc2c1
32 | 28 µg/mL (≈ 71.3 µM) | CCOC(=O)N1CCN(C(c2cccnc2)c2ccc3cccnc3c2O)CC1 (centres undefined)
33 | 6.5 µg/mL (≈ 23.2 µM) | Cc1cccc(NC(=O)N2CCc3ccccc3C2)c1C
34 | 8.6 µg/mL (≈ 30.5 µM) | CC(=O)NCc1ccc(-c2nc3ccccc3s2)cc1
35 | > 32.4 µg/mL | Cc1cccc(CC(=O)Nc2ccon2)c1
36 | 9.4 µg/mL (≈ 21.9 µM) | Cc1ccc(S(=O)(=O)N2CCCCC2)cc1NC(=O)CCNC(=O)c1ccccc1
37 | 3.8 µg/mL (≈ 11.8 µM) | CC(OC(=O)c1cc2ccccc2[nH]1)C(=O)N(C)c1ccccc1 (centres undefined)
38 | 63.7 µg/mL (≈ 148 µM) | O=C(C1Cc2ccccc2CN1S(=O)(=O)c1ccccc1[N+](=O)[O-])N1CCOCC1 (centres undefined)
39 | 0.9 µg/mL (≈ 2.69 µM) | O=C(Nc1nc2ccccc2c(=O)s1)c1ccc(F)cc1Cl
40 | > 47.3 µg/mL | CCN(CC)CCCNC(=O)Cn1ccc2ccccc2c1=O
41 | 24.1 µg/mL (≈ 47.1 µM) | O=C(COC(=O)c1ccc(Br)c(S(=O)(=O)N2CCOCC2)c1)NCCc1ccccc1
42 | < 0.2 µg/mL | c1ccc2c(Nc3nc(-c4ccncc4)nc4ccccc34)cccc2c1
43 | > 49.1 µg/mL | CN(C(=O)c1ccncc1)C1CCCN(Cc2ccccc2F)C1 (centres undefined)
44 | > 53.9 µg/mL | O=C(O)CC(CC(=O)Nc1ccc(-c2ccccc2)cc1)c1ccccc1 (centres undefined)
45 | 0.7 µg/mL (≈ 2.14 µM) | CN(C)c1ccc(NC(=O)C(=O)NCCOc2ccccc2)cc1
46 | > 47.9 µg/mL | N#C/C(=C\c1ccccc1OCC(=O)O)c1nc2ccccc2[nH]1
47 | 0.6 µg/mL (≈ 1.99 µM) | N#CCc1ccc(NC(=O)Nc2cccc3ccccc23)cc1
48 | 5.2 µg/mL (≈ 18.4 µM) | COC(=O)c1ccc(C2NC(=O)c3ccccc3O2)cc1 (centres undefined)
49 | 45.8 µg/mL (≈ 148 µM) | O=C(O)CN1C(=O)c2ccc(C(=O)c3ccccc3)cc2C1=O
50 | > 35 µg/mL | CC(C)(C)CC(C)(C)NC(=O)c1ccccc1

Further lines, the compound ahead of its results:

Row | Structure (SMILES) | solubility kinetic
51 | CC(OC(=O)CCCc1nc2ccccc2s1)C(=O)NC(N)=O (centres undefined) | > 50.3 µg/mL
52 | CCc1ccc(N(CC(=O)N2CCOCC2)S(C)(=O)=O)cc1 | > 49 µg/mL
53 | Cc1cc([N+](=O)[O-])nn1CC(=O)NC1CCCCC1 | > 39.9 µg/mL
54 | O=C(O)/C=C/C(=O)NCC1CCC(CNC(=O)/C=C/C(=O)O)CC1 (centres undefined) | > 50.8 µg/mL
55 | O=C1C(Cl)=C(N2CCCCCC2)C(=O)N1c1ccc(Cl)cc1 | 26.2 µg/mL (≈ 77.2 µM)
56 | Cc1cccc(Cl)c1OCCCn1ccnc1.O=C(O)C(=O)O | 45.4 µg/mL
57 | Cc1ccc(CNc2ccc3c(c2)nc(C)n3C)cc1 | 38.3 µg/mL (≈ 144 µM)
58 | COc1cccc(C(=O)NC2CC(C)(C)NC(C)(C)C2)c1OC | > 48.1 µg/mL
59 | O=C(CN1CCCC1)Nc1ccc(Cl)cc1C(F)(F)F | 22.3 µg/mL (≈ 72.7 µM)
60 | Cc1cccc(-c2noc(CCCC(=O)NC3CCCC3)n2)c1 | 42.2 µg/mL (≈ 135 µM)
61 | O=C(c1ccncc1)N1CCN(S(=O)(=O)c2ccc(OC(F)(F)F)cc2)CC1 | 36.6 µg/mL (≈ 88.1 µM)
62 | O=C(Cn1c(=O)cnc2ccccc21)NC1CCC(O)CC1 (centres undefined) | > 45.2 µg/mL
63 | O=C(O)C(=O)Nc1nc(-c2ccc3c(c2)OCCO3)cs1 | > 45.9 µg/mL
64 | O=C1NC2(CCCCCC2)C(=O)N1Cc1cccc([N+](=O)[O-])c1 | 32.1 µg/mL (≈ 101 µM)
65 | O=C(C1CCN(S(=O)(=O)c2cccs2)CC1)N1CCCCC1 | > 51.4 µg/mL
66 | O=C(NCCCn1ccnc1)c1ccc(Cl)s1 | > 40.5 µg/mL
67 | N#Cc1ccsc1NC(=O)CCN1C(=O)C2CCCCC2C1=O (centres undefined) | > 49.7 µg/mL
68 | CSc1ccc(CNC(=O)c2c(C)noc2C)s1 | 39.8 µg/mL (≈ 141 µM)
69 | COc1nc(Nc2cccc(F)c2)nc(OC)n1 | 12.8 µg/mL (≈ 51.2 µM)
70 | Clc1ccccc1Cc1noc(CN2CCN3CCCC3C2)n1 (centres undefined) | > 49.9 µg/mL
71 | CNC(=S)N(CCc1c(C)[nH]c2ccccc12)Cc1ccco1 | 1.5 µg/mL (≈ 4.58 µM)
72 | CC(=O)N1CCN(S(=O)(=O)c2ccc(Cl)cc2F)CC1 | > 48.1 µg/mL
73 | Cn1cccc1C(=O)OCC(=O)NCc1ccc2c(c1)OCO2 | > 47.4 µg/mL

Row | Structure (SMILES) | solubility kinetic
74 | COc1ccc(NS(=O)(=O)N2CCOCC2)cc1 | > 40.8 µg/mL
75 | C=CCOc1nc2sc(C)c(C)c2c(=O)n1-c1ccccc1 | 46.1 µg/mL (≈ 148 µM)
76 | OC(c1ccccc1)(c1ccc(Cl)cc1)C1CN2CCC1CC2 (centres undefined) | > 49.2 µg/mL
77 | CCCc1cc(=O)[nH]c(SCC(=O)N2CCC(C)CC2)n1 | > 46.4 µg/mL
78 | CC(C)(C)N=C1C([N+](=O)[O-])=CC=C2C1=NC1(CCCCC1)N2O | 45.3 µg/mL (≈ 142 µM)
79 | COc1ccc(N2CCN(c3cc(C)c4ccc(C)cc4n3)CC2)cc1 | 1.1 µg/mL (≈ 3.17 µM)
80 | Cc1nc([N+](=O)[O-])cn1CC(=O)Nc1ccc([N+](=O)[O-])cc1 | 1.3 µg/mL (≈ 4.26 µM)
81 | CN(C(=O)CSc1nc(N)cc(N)n1)C1CCS(=O)(=O)C1 (centres undefined) | 41 µg/mL (≈ 124 µM)
82 | CCN(C(=O)COC(=O)Cc1c[nH]c2ccccc12)C1CCS(=O)(=O)C1 (centres undefined) | > 56.8 µg/mL
83 | COc1cc2c(cc1OC)C(C)N(C(=O)c1ccc(C)o1)CC2 (centres undefined) | > 47.3 µg/mL
84 | Cc1ccc(C(=O)COC(=O)[C@@H](NC(=O)c2ccco2)C(C)C)s1 | > 52.4 µg/mL
85 | Cc1ccc(F)cc1NC(=O)CCc1c(C)[nH]c(=O)c(C#N)c1C | > 49.1 µg/mL
86 | CCOc1ncccc1C(=O)OCc1c(F)cccc1Cl | 4.6 µg/mL (≈ 14.9 µM)
87 | COc1cccc(C(=O)NC23CC4CC(CC(C4)C2)C3)c1 | 24.8 µg/mL (≈ 86.9 µM)
88 | CCOc1c(Nc2ccc(C(C)C)cc2)c(=O)c1=O | 25.3 µg/mL (≈ 97.6 µM)
89 | CCCCCC(=O)NNC1CC(=O)N(c2ccccc2)C1=O (centres undefined) | > 45.5 µg/mL
90 | Cl.O=C(O)C1=CCNCC1 | > 24.5 µg/mL
91 | CC(Oc1ccc(Cl)cc1)C(=O)NCC1CCCO1 (centres undefined) | 41.5 µg/mL (≈ 146 µM)
92 | CCOc1ncccc1-c1nc(-c2cccs2)no1 | 1.8 µg/mL (≈ 6.59 µM)
93 | CCOc1cc(N2CCOCC2)c(OCC)cc1NC(=O)c1cnccn1 | 11.9 µg/mL (≈ 32 µM)
94 | CCOc1ccc(C(=O)OCC(=O)NC2CCCC2)cc1OCC | 17.7 µg/mL (≈ 52.8 µM)
95 | S=C(NCc1ccco1)N/N=C/c1ccncc1 | > 39 µg/mL
96 | O=C1CCC(C(=O)Nc2ccccc2N2CCOCC2)=NN1 | > 45.3 µg/mL

Row | Structure (SMILES) | solubility kinetic
97 | NC(=S)c1cc2cc(Br)ccc2oc1=O | < 0.6 µg/mL
98 | O=[N+]([O-])c1ccc(O)c(C=Nc2ccc3c(c2)OCO3)c1 | 15.8 µg/mL (≈ 55.2 µM)
99 | Cc1cc(C)nc(/N=C(\N)N2CCc3ccccc32)n1 | 37.1 µg/mL (≈ 139 µM)
100 | COc1cc2c(cc1OC)C(C)N(C(=O)c1c(C)noc1C)CC2 (centres undefined) | 2.7 µg/mL (≈ 8.17 µM)
101 | N#Cc1ccc(Oc2c(Cl)cncc2Cl)cc1 | 23.2 µg/mL (≈ 87.5 µM)
102 | Nc1nc(-c2ccc3c(c2)CCCC3)c(CC(=O)O)s1 | 42.3 µg/mL (≈ 147 µM)
103 | Cc1ccc(NC(=O)C(=O)c2ccc(C)cc2)cc1 | 0.7 µg/mL (≈ 2.76 µM)
104 | COc1ccc(CC(=O)Nc2nc(C)cs2)cc1 | 27.2 µg/mL (≈ 104 µM)
105 | Cc1nc(N2CCCCCC2)c2ccccc2n1.Cl | > 41.7 µg/mL
106 | O=C(CNC(=O)C1CC1)Nc1ccc(F)c(F)c1F | > 40.8 µg/mL
107 | COc1cccc(NC(=O)/C=C/c2ccco2)c1 | > 36.5 µg/mL
108 | CN(C)S(=O)(=O)c1ccc(NC(=S)NC(=O)C2CCC2)cc1 | 12.5 µg/mL (≈ 36.6 µM)
109 | CCC1CCCCN1CC(C)(C)NS(=O)(=O)c1ccccc1 (centres undefined) | 39.2 µg/mL (≈ 121 µM)
110 | O=C(CSc1ncccc1C(=O)O)c1cccc(C(F)(F)F)c1 | > 51.2 µg/mL
111 | Cc1ccc(S(=O)(=O)N2CCOCC2)cc1C(=O)OCC(=O)N1CCCC1=O | > 61.6 µg/mL
112 | Clc1ccc2c(c1)C(N1CCNCC1)=Nc1ccccc1O2 | 34.4 µg/mL (≈ 110 µM)
113 | Cc1cc(C)n(-c2ccc(C(=O)N3CC(C)OC(C)C3)cc2)n1 (centres undefined) | > 47 µg/mL
114 | Cc1nc(NC(=O)COC(=O)[C@@H](NC(=O)c2ccco2)C(C)C)c(Cl)cc1Cl | > 64.2 µg/mL
115 | Cc1ccc(C)c(C(=O)CSc2nc(N)cc(=O)[nH]2)c1 | 19.2 µg/mL (≈ 66.4 µM)
116 | CC(=O)Nc1ccc(C)c(NC(=S)Nc2ccc(F)cc2)c1 | 42.6 µg/mL (≈ 134 µM)
117 | COC(=O)c1c(C)oc(C)c1S(=O)(=O)NCc1ccc(Cl)cc1 | 5 µg/mL (≈ 14 µM)
118 | Cc1cc(C)nc(Oc2ccc(Br)cc2)n1 | 35.5 µg/mL (≈ 127 µM)
119 | CSc1ccc(C(=O)C2CCCN(C)C2)cc1 (centres undefined) | > 37.4 µg/mL
